According to patent US20150315188A1, “COMPOUNDS AND METHODS FOR TREATMENT OF HYPERTENSION” (MEDIVATION TECHNOLOGIES, INC., priority 2012, published 2015):
Several values for one entry are separate records, joined by “and”; a condition that tells them apart may be missing. Identical values can stand only once.

Key:
Design in all cases: purchased Milipore (Millipore)
[1] = molecular target: T1, Human adrenergic α2B receptor (Homo sapiens, UniProt P18089); experiment: Radioligand binding, adrenergic α2B (Protocol Group B); conditions: Protocol Group B; for Percentage inhibition of ligand binding, Adrenergic α2B (30 nM) / inhibition at 0.03 µM: 30 nM compound; for Percentage inhibition of ligand binding, Adrenergic α2B (30 nM): 0.03 µM; for Percentage inhibition of ligand binding, Adrenergic α2B (10 nM) / inhibition at 0.01 µM: 10 nM compound; for Percentage inhibition of ligand binding, Adrenergic α2B (10 nM): 0.01 µM; for Ki: estimated Ki, read-out: Ki α2B; for inhibition at 0.01 µM: read-out: Percentage inhibition of ligand binding, Adrenergic α2B (10 nM); for inhibition at 0.03 µM: read-out: Percentage inhibition of ligand binding, Adrenergic α2B (30 nM)
T1 sequence (P18089 1-450): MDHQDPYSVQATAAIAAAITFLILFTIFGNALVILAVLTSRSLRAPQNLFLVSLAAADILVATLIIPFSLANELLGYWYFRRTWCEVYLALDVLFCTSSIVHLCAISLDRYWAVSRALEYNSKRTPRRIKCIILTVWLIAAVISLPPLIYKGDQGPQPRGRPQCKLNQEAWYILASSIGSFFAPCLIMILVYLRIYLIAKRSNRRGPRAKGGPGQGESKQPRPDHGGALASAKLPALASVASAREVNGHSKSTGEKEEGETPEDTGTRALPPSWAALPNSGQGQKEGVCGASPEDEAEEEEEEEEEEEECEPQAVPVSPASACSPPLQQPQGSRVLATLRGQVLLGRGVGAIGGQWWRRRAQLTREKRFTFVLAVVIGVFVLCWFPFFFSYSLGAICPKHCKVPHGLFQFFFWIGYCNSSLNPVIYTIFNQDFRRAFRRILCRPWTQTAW
Experimental: To evaluate the activity of compounds in radioligand binding assays, Human adrenergic α2B receptor obtained from recombinant cell membrane from Milipore. Binding experiments were carried out in Tris-HCl buffer (50 mM Tris-HCl buffer, pH 7.4, 5 mM Mgcl2, 1 mM Cacl2, 0.2% BSA) as recommended by Milipore. […] Non-specific binding was estimated in the presence of 10 μM Rauwolscine. […] Compounds were screened at various concentrations, using 1% DMSO as vehicle. Biochemical assay results are presented as the percent Inhibition of specific binding in Table B1b, or estimated Ki values in Table B1c.

[2] = molecular target: T2, Human adrenergic α2A receptor (Homo sapiens, UniProt P08913); experiment: Radioligand binding, adrenergic α2A (Protocol Group B); conditions: Protocol Group B; for Percentage inhibition of ligand binding, Adrenergic α2A (0.1 μM) / inhibition at 0.1 µM: 0.1 μM compound; for Percentage inhibition of ligand binding, Adrenergic α2A (0.3 μM) / inhibition at 0.3 µM: 0.3 μM compound; for inhibition at 0.3 µM: read-out: Percentage inhibition of ligand binding, Adrenergic α2A (0.3 μM); for inhibition at 0.1 µM: read-out: Percentage inhibition of ligand binding, Adrenergic α2A (0.1 μM)
T2 sequence (P08913 1-465): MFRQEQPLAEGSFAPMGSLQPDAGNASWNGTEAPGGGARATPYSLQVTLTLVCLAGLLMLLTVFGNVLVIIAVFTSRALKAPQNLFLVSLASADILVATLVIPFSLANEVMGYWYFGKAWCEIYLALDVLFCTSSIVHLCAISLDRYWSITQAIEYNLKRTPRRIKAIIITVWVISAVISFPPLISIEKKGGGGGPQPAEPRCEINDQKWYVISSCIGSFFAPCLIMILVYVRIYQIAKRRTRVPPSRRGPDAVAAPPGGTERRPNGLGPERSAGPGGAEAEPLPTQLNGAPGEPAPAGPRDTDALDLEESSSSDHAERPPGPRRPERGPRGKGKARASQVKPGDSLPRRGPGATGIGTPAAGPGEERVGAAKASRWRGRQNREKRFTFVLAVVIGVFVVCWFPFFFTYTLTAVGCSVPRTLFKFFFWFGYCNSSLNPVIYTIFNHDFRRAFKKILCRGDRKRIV
Experimental: To evaluate the activity of compounds in radioligand binding assays, Human adrenergic α2A receptor obtained from recombinant cell membrane from Milipore. Binding experiments were carried out in Tris-HCl buffer (50 mM Tris-HCl buffer, pH 7.4, 5 mM Mgcl2, 1 mM Cacl2, 0.2% BSA) as recommended by Milipore. Compounds were incubated with 2 nM [^3H]MK-912 for 60 min at 25° C. Non-specific binding was estimated in the presence of 10 μM Rauwolscine. Receptor proteins were harvested on 0.33% PEI(poly-ethylenemine) soaked GFC filter mat, the specifically bound [^3H]MK-912 were counted to determine total binding. Compounds were screened at various concentrations, using 1% DMSO as vehicle. percent inhibition of specific binding was determined. Biochemical assay results are presented as the percent Inhibition of specific binding in Table B1b, or estimated Ki values in Table B1c.

[3] = molecular target: T3, Human adrenergic α1B receptor (Homo sapiens, UniProt P35368); experiment: Radioligand binding, adrenergic α1B (Protocol Group B); conditions: Protocol Group B; for Percentage inhibition of ligand binding, Adrenergic α1B (0.1 μM) / inhibition at 0.1 µM: 0.1 μM compound; for Percentage inhibition of ligand binding, Adrenergic α1B (0.3 μM) / inhibition at 0.3 µM: 0.3 μM compound; for inhibition at 0.1 µM: read-out: Percentage inhibition of ligand binding, Adrenergic α1B (0.1 μM); for inhibition at 0.3 µM: read-out: Percentage inhibition of ligand binding, Adrenergic α1B (0.3 μM)
T3 sequence (P35368 1-520): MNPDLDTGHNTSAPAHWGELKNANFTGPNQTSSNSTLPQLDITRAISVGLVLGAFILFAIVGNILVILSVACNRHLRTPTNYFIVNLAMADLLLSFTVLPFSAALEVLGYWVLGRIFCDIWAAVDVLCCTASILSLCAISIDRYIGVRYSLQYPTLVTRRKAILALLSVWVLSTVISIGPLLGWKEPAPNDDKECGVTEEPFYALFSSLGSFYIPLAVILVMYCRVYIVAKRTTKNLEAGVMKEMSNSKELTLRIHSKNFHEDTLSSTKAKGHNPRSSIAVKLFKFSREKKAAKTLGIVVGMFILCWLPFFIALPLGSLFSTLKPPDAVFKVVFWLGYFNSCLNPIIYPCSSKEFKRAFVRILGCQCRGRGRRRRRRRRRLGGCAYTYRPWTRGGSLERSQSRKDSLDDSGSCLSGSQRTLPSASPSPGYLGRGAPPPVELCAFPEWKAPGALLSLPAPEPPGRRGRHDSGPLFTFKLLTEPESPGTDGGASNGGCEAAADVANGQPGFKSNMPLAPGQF
Experimental: To evaluate the activity of compounds in radioligand binding assays, Human adrenergic α1B receptor obtained from recombinant cell membrane from Milipore. Binding experiments were carried out in Tris-HCl buffer (50 mM Tris-HCl buffer, pH 7.4, 10 mM Mgcl2, 1 mM EDTA) as recommended by Milipore. Compounds were incubated with 0.3 nM [^3H]Prazosin for 60 min at 25° C. Non-specific binding was estimated in the presence of 10 μM prazosin. Receptor proteins were harvested on 0.33% PEI(poly-ethylenemine) soaked GFC filter mat, the specifically bound [^3H]Prazosin were counted to determine total binding. Compounds were screened at various concentrations, using 1% DMSO as vehicle. percent inhibition of specific binding was determined. Biochemical assay results are presented as the percent Inhibition of specific binding in Table B1b, or estimated Ki values in Table B1c.

SMILES | Percentage inhibition of ligand binding, Adrenergic α2B (30 nM) [1] [%] | Percentage inhibition of ligand binding, Adrenergic α2A (0.1 μM) [2] [%] | Percentage inhibition of ligand binding, Adrenergic α1B (0.1 μM) [3] | Percentage inhibition of ligand binding, Adrenergic α2B (10 nM) [1] [%] | Percentage inhibition of ligand binding, Adrenergic α2A (0.3 μM) ([2]; 0.3 µM) [%] | Percentage inhibition of ligand binding, Adrenergic α1B (0.3 μM) [3] [%] | also measured
CN1CCc2c(c3cc(CCO)ccc3n2CC(O)c2ccncc2)C1 (single isomer, unassigned) [140b] | 56 | −11 | −4% |  |  |  | 
Cc1cc(F)cc2c3c(n(CC(C)(O)c4cccnc4)c12)CCN1CCCC31 (single isomer, unassigned) [75c] | 96 | 67 | 41% | 90 | 84 | 69 | Ki [1]: 0.98 nM; Ki ([2]; estimated Ki): 24.5 nM
Cc1cc(F)c2c(c1)c1c(n2CC(C)(O)c2cccnc2)CC2CCCN2C1 (single isomer, unassigned) [61b] | 3 | 6 | −7% | −8 | 22 | 11 | Percentage inhibition of ligand binding, Adrenergic α2B (0.1 μM) ([1]; 0.1 μM compound): 28%
OC(Cn1c2c(c3cc(Cl)ccc31)C1CCCN1CC2)c1ccncc1 (single isomer, unassigned) [143b] | 100 | 93 | 94% |  |  |  | 
Cc1ccc2c(c1)c1c(n2CC(C)(O)c2cncc(F)c2)CCN(C)C1 (single isomer, unassigned) [46a] | 60 | 20 | 6% | 33 | 35 | 27 | Percentage inhibition of ligand binding, Adrenergic α2B (0.1 μM) ([1]; 0.1 μM compound): 82%
CC(O)(Cn1c2c(c3cc(Cl)cc(F)c31)CN1CCCC1C2)c1ccncc1 (single isomer, unassigned) [86b] | 17 | 11 | 3% | 14 | 14 | 15 | 
Cc1ccc2c(c1)c1c(n2CC(OC(N)=O)c2ccncc2)CCN(C)C1 (single isomer, unassigned) [8b] |  | 7 |  |  |  |  | inhibition at 0.01 µM [1]: 13%; inhibition at 0.03 µM [1]: 27%; Percentage inhibition of ligand binding, Adrenergic α2B (0.1 μM) ([1]; 0.1 μM compound): 26%; inhibition at 0.3 µM [2]: 10%; inhibition at 0.1 µM [3]: 9%; inhibition at 0.3 µM [3]: 14%
Cc1ccc2c(c1)c1c(n2CC(OC(C)C)c2ccncc2)CCN(C)C1 (stereo not shown) [compound 49, 5-(2-isopropoxy-2-(pyridin-4-yl)ethyl)-2,8-dimethyl-2,3,4,5-tetrahydro-1H-pyrido[4,3-b]indole] |  |  |  |  |  |  | inhibition at 0.01 µM [1]: 50%; inhibition at 0.03 µM [1]: 74%; inhibition at 0.1 µM ([1]; 0.1 μM compound, read-out: Percentage inhibition of ligand binding, Adrenergic α2B (0.1 μM)): 91%; inhibition at 0.1 µM [2]: 28%; inhibition at 0.3 µM [2]: 53%; inhibition at 0.1 µM [3]: 9%; inhibition at 0.3 µM [3]: 40%
Cc1cc(F)c2c(c1)c1c(n2CC(C)(O)c2cccnc2)CCN2CCCC12 (single isomer, unassigned) [79d] | 3 | −7 | −4% | −7 | 5 | 1 | 
OC(Cn1c2c(c3cc(Cl)ccc31)C1CCCN1CC2)c1ccncc1 (single isomer, unassigned) [143a] | 89 | 44 | 91% |  |  |  | 
CC(O)(Cn1c2c(c3cc(C(F)(F)F)ccc31)CN1CCCC1C2)c1cccnc1 (stereo not shown) [85b] |  |  |  |  |  |  | inhibition at 0.01 µM [1]: -7%; inhibition at 0.03 µM [1]: -5%; inhibition at 0.1 µM [2]: -14%; inhibition at 0.3 µM [2]: -17%; inhibition at 0.1 µM [3]: -12%; inhibition at 0.3 µM [3]: -3%
Cc1ccc2c(c1)c1c(n2CC(O)c2cccnc2)CC2CCCN2C1 (single isomer, unassigned) [27b] | 48 | 10 | 13% | 26 |  | 41 | Percentage inhibition of ligand binding, Adrenergic α2B (0.1 μM) ([1]; 0.1 μM compound): 67%; Percentage inhibition of ligand binding, Adrenergic α2A (0.3 μM) [2]: 20%
Cc1ccc2c(c1)c1c(n2CC(O)c2ccncc2)CCN2CCCC12 (single isomer, unassigned) [Compound No. 178a] |  |  | 73% |  |  |  | 
Cc1ccc2c(c1)c1c(n2CC(O)c2ccncc2)CCN2CCCC12 (single isomer, unassigned) [Compound No. 178c] |  | 35 | 94% and 96% |  |  |  | 
CC(O)(Cn1c2c(c3cc(F)ccc31)C1CCCN1CC2)c1cccnc1 (stereo not shown) [compound 51] |  |  |  |  |  |  | Ki [1]: 1.58 nM
Cc1ccc2c(c1)c1c(n2CC(O)c2ccncc2)CCN2CCCC12 (single isomer, unassigned) [Compound No. 178b] |  | 55 | 69% |  |  |  | 
